Patent publication US20090118274A1, “MONOCYCLIC AMINOPROPYL TETRAHYDRO-PYRAZOLO-PYRIDINE MODULATORS OF CATHEPSIN S” (priority 2007, published 2009)
Read-outs that look alike come from different tables or passages of the source.

Target: T1, Recombinant human cathepsin S (CatS) (Homo sapiens, UniProt P25774)
T1 construct: made in house
Experiment: Recombinant human cathepsin S (CatS) fluorogenic substrate inhibition assay
Format: biochemical
Description: Recombinant human cathepsin S (CatS) was expressed in the baculovirus system and purified in one step with a thiopropyl-sepharose column. […] The assay is run in 150 mM sodium acetate pH 5.0 containing 1.5 mM DTT and 150 mM NaCl. […] Measurements are taken every min for 20 min. The rate is calculated from the slope of the increase in fluorescence and the percent inhibition is calculated from this.

[1] = average of results obtained, substrate Z-Valine-Valine-Arginine-AMC 10 μM, pH 5.0, read-out: CatS IC50

T1 sequence (P25774 115-331): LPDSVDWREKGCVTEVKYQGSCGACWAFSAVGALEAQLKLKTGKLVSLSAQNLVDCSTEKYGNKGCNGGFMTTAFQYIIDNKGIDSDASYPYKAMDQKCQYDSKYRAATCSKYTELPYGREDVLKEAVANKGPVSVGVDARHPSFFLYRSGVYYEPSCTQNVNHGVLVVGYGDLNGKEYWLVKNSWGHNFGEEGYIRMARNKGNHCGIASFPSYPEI

Compound | IC50 [1] | IC50
CC(=O)NCC1CCN(CC(O)Cn2nc(-c3ccc(C(F)(F)F)c(CNC(=O)C=C(C)C)c3)c3c2CCN(S(C)(=O)=O)C3)CC1 (stereo not shown) [Example 267, 3-Methyl-but-2-enoic acid 5-(1-{3-[4-(acetylamino-methyl)-piperidin-1-yl]-2-hydroxy-propyl}-5-methanesulfonyl-4,5,6,7-tetrahydro-1H-pyrazolo[4,3-c]pyridin-3-yl)-2-trifluoromethyl-benzylamide] |  | 80 nM
CS(=O)(=O)N1CCc2c(c(-c3ccc(C(F)(F)F)c(CNS(=O)(=O)c4ccc(F)cc4)c3)nn2CC(O)CN2CCCC2)C1 (stereo not shown) [Example 194, 4-Fluoro-N-{5-[1-(2-hydroxy-3-pyrrolidin-1-yl-propyl)-5-methanesulfonyl-4,5,6,7-tetrahydro-1H-pyrazolo[4,3-c]pyridin-3-yl]-2-trifluoromethyl-benzyl}-benzenesulfonamide] | 4900 nM | 
CS(=O)(=O)N1CCc2c(c(-c3ccc(Cl)c(CNC(=O)c4ccccc4)c3)nn2CCCN2CCCC2)C1 [Example 2, N-{2-Chloro-5-[5-methanesulfonyl-1-(3-pyrrolidin-1-yl-propyl)-4,5,6,7-tetrahydro-1H-pyrazolo[4,3-c]pyridin-3-yl]-benzyl}-benzamide] |  | 320 nM
CS(=O)(=O)N1CCc2c(c(-c3ccc(Cl)c(CNC(=O)c4ccc(F)cc4)c3)nn2CC(O)CN2CCCC(O)C2)C1 (stereo not shown) [Example 74, N-(2-Chloro-5-{1-[2-hydroxy-3-(3-hydroxy-piperidin-1-yl)-propyl]-5-methanesulfonyl-4,5,6,7-tetrahydro-1H-pyrazolo[4,3-c]pyridin-3-yl}-benzyl)-4-fluoro-benzamide] | 300 nM | 
CC(C)CC(=O)NCc1cc(-c2nn(CC(O)CN3CCC(C(C)(C)C)CC3)c3c2CN(C(=O)CO)CC3)ccc1C(F)(F)F (stereo not shown) [Example 298, N-{5-[1-[3-(4-tert-Butyl-piperidin-1-yl)-2-hydroxy-propyl]-5-(2-hydroxy-acetyl)-4,5,6,7-tetrahydro-1H-pyrazolo[4,3-c]pyridin-3-yl]-2-trifluoromethyl-benzyl}-3-methyl-butyramide] | 80 nM | 
CC(C)CC(=O)NCc1cc(-c2nn(CC(O)CN3CCC(NC(=O)C(F)(F)F)C3)c3c2CN(S(C)(=O)=O)CC3)ccc1C(F)(F)F (stereo not shown) [Example 280, N-[5-(1-{2-Hydroxy-3-[3-(2,2,2-trifluoro-acetylamino)-pyrrolidin-1-yl]-propyl}-5-methanesulfonyl-4,5,6,7-tetrahydro-1H-pyrazolo[4,3-c]pyridin-3-yl)-2-trifluoromethyl-benzyl]-3-methyl-butyramide] | 360 nM | 
CC(C)CC(=O)NCc1cc(-c2nn(CC(O)CN3CCC(NS(C)(=O)=O)CC3)c3c2CN(S(C)(=O)=O)CC3)ccc1C(F)(F)F (stereo not shown) [Example 255, N-(5-{1-[2-Hydroxy-3-(4-methanesulfonylamino-piperidin-1-yl)-propyl]-5-methanesulfonyl-4,5,6,7-tetrahydro-1H-pyrazolo[4,3-c]pyridin-3-yl}-2-trifluoromethyl-benzyl)-3-methyl-butyramide] | 160 nM | 
CS(=O)(=O)N1CCc2c(c(-c3ccc(C(F)(F)F)c(CNC(=O)c4cc(Cl)cc(Cl)c4)c3)nn2CC(O)CN2CCCC2)C1 (stereo not shown) [Example 218, 3,5-Dichloro-N-{5-[1-(2-hydroxy-3-pyrrolidin-1-yl-propyl)-5-methanesulfonyl-4,5,6,7-tetrahydro-1H-pyrazolo[4,3-c]pyridin-3-yl]-2-trifluoromethyl-benzyl}-benzamide] | 610 nM | 
CS(=O)(=O)N1CCc2c(c(-c3ccc(Cl)c(CNC(=O)c4ccc(F)cc4)c3)nn2CC(O)CN2CCC(F)(F)C2)C1 (stereo not shown) [Example 84, N-(2-Chloro-5-{1-[3-(3,3-difluoro-pyrrolidin-1-yl)-2-hydroxy-propyl]-5-methanesulfonyl-4,5,6,7-tetrahydro-1H-pyrazolo[4,3-c]pyridin-3-yl}-benzyl)-4-fluoro-benzamide] | 180 nM | 
CS(=O)(=O)N1CCc2c(c(-c3ccc(C(F)(F)F)c(CNS(=O)(=O)Cc4ccccc4)c3)nn2CCCN2CCC3(CCNC3=O)CC2)C1 [Example 67, N-(5-{5-Methanesulfonyl-1-[3-(1-oxo-2,8-diaza-spiro[4.5]dec-8-yl)-propyl]-4,5,6,7-tetrahydro-1H-pyrazolo[4,3-c]pyridin-3-yl}-2-trifluoromethyl-benzyl)-C-phenyl-methanesulfonamide] | 2200 nM | 
CS(=O)(=O)N1CCc2c(c(-c3ccc(C(F)(F)F)c(CNC(=O)C4CCCCCC4)c3)nn2CC(O)CN2CCC3(CCNC3=O)CC2)C1 (stereo not shown) [Example 167, Cycloheptanecarboxylic acid 5-{1-[2-hydroxy-3-(1-oxo-2,8-diaza-spiro[4.5]dec-8-yl)-propyl]-5-methanesulfonyl-4,5,6,7-tetrahydro-1H-pyrazolo[4,3-c]pyridin-3-yl}-2-trifluoromethyl-benzylamide] | 490 nM | 
CN(C)c1ccccc1C(=O)NCc1cc(-c2nn(CC(O)CN3CCCC3)c3c2CN(S(C)(=O)=O)CC3)ccc1C(F)(F)F (stereo not shown) [Example 239, 2-Dimethylamino-N-{5-[1-(2-hydroxy-3-pyrrolidin-1-yl-propyl)-5-methanesulfonyl-4,5,6,7-tetrahydro-1H-pyrazolo[4,3-c]pyridin-3-yl]-2-trifluoromethyl-benzyl}-benzamide] | 950 nM | 
CS(=O)(=O)N1CCc2c(c(-c3ccc(Cl)c(CNC(=O)c4ccc(F)cc4)c3)nn2CC(O)CN2CCC3(CCNC3=O)CC2)C1 (stereo not shown) [Example 11, N-(2-Chloro-5-{1-[2-hydroxy-3-(1-oxo-2,8-diaza-spiro[4.5]dec-8-yl)-propyl]-5-methanesulfonyl-4,5,6,7-tetrahydro-1H-pyrazolo[4,3-c]pyridin-3-yl}-benzyl)-4-fluoro-benzamide] | 90 nM | 
CC(=O)N1CCc2c(c(-c3ccc(C(F)(F)F)c(CNC(=O)c4ccc(F)cc4)c3)nn2CC(O)CN2CCC3(CCNC3=O)CC2)C1 (stereo not shown) [Example 7, N-(5-{5-Acetyl-1-[2-hydroxy-3-(1-oxo-2,8-diaza-spiro[4.5]dec-8-yl)-propyl]-4,5,6,7-tetrahydro-1H-pyrazolo[4,3-c]pyridin-3-yl}-2-trifluoromethylbenzyl)-4-fluoro-benzamide] | 70 nM | 

Further lines, with some results ahead:

IC50 [1] | Compound | IC50
900 nM | CS(=O)(=O)N1CCc2c(c(-c3ccc(C(F)(F)F)c(CNC(=O)c4ccc(F)cc4)c3)nn2CC(O)CN2CCNCC2)C1 (stereo not shown) [Example 236, 4-Fluoro-N-{5-[1-(2-hydroxy-3-piperazin-1-yl-propyl)-5-methanesulfonyl-4,5,6,7-tetrahydro-1H-pyrazolo[4,3-c]pyridin-3-yl]-2-trifluoromethyl-benzyl}-benzamide] | 
170 nM | CS(=O)(=O)N1CCc2c(c(-c3ccc(C(F)(F)F)c(CNC(=O)c4ccc(F)cc4)c3)nn2CC(O)CN2CCCC(O)C2)C1 (stereo not shown) [Example 92, 4-Fluoro-N-(5-{1-[2-hydroxy-3-(3-hydroxy-piperidin-1-yl)-propyl]-5-methanesulfonyl-4,5,6,7-tetrahydro-1H-pyrazolo[4,3-c]pyridin-3-yl}-2-trifluoromethyl-benzyl)-benzamide] | 
90 nM | CS(=O)(=O)N1CCc2c(c(-c3ccc(C(F)(F)F)c(CNC(=O)c4ccc(F)cc4)c3)nn2CC(O)CN2CCC(CO)CC2)C1 (stereo not shown) [Example 89, 4-Fluoro-N-(5-{1-[2-hydroxy-3-(4-hydroxymethyl-piperidin-1-yl)-propyl]-5-methanesulfonyl-4,5,6,7-tetrahydro-1H-pyrazolo[4,3-c]pyridin-3-yl}-2-trifluoromethyl-benzyl)-benzamide] | 
190 nM | CS(=O)(=O)N1CCc2c(c(-c3ccc(C(F)(F)F)c(CNC(=O)c4ccc(F)c(Cl)c4)c3)nn2CC(O)CN2CCCC2)C1 (stereo not shown) [Example 61, 3-Chloro-4-fluoro-N-{5-[1-(2-hydroxy-3-pyrrolidin-1-yl-propyl)-5-methanesulfonyl-4,5,6,7-tetrahydro-1H-pyrazolo[4,3-c]pyridin-3-yl]-2-trifluoromethyl-benzyl}-benzamide] | 
30 nM | CC(C)(C)OC(=O)NC1CCN(CC(O)Cn2nc(-c3ccc(C(F)(F)F)c(CNC(=O)c4ccc(F)cc4)c3)c3c2CCN(S(C)(=O)=O)C3)CC1 (stereo not shown) [Example 102] | 
280 nM | CS(=O)(=O)N1CCc2c(c(-c3ccc(C(F)(F)F)c(CNC(=O)c4ccc(F)cc4)c3)nn2CC(O)CN2CCN(CCO)CC2)C1 (stereo not shown) [Example 98, 4-Fluoro-N-[5-(1-{2-hydroxy-3-[4-(2-hydroxy-ethyl)-piperazin-1-yl]-propyl}-5-methanesulfonyl-4,5,6,7-tetrahydro-1H-pyrazolo[4,3-c]pyridin-3-yl)-2-trifluoromethyl-benzyl]-benzamide] | 
50 nM | CS(=O)(=O)N1CCc2c(c(-c3ccc(C(F)(F)F)c(CNC(=O)c4ccc(O)cc4)c3)nn2CC(O)CN2CCC3(CCNC3=O)CC2)C1 (stereo not shown) [Example 141, 4-Hydroxy-N-(5-{1-[2-hydroxy-3-(1-oxo-2,8-diaza-spiro[4.5]dec-8-yl)-propyl]-5-methanesulfonyl-4,5,6,7-tetrahydro-1H-pyrazolo[4,3-c]pyridin-3-yl}-2-trifluoromethyl-benzyl)-benzamide] | 
730 nM | CS(=O)(=O)N1CCc2c(c(-c3ccc(C(F)(F)F)c(CNC(=O)c4ccc(Cl)cc4)c3)nn2CC(O)CN2CCCC2)C1 (stereo not shown) [Example 224, 4-Chloro-N-{5-[1-(2-hydroxy-3-pyrrolidin-1-yl-propyl)-5-methanesulfonyl-4,5,6,7-tetrahydro-1H-pyrazolo[4,3-c]pyridin-3-yl]-2-trifluoromethyl-benzyl}-benzamide] | 
